Calls of active or inactive are those of the source. The calls are words filed in the database; no cut-off is given here. Where a SMILES comes first, the peptide text is derived from it.

Among the data in ChEMBL document CHEMBL1158896, “Isolation and structure of the cytotoxic cycloheptapeptide phakellistatin 13” (2003) are Activity and EC50 values, retold here.

The test system of one assay is HL-60. Nature of the assay: Cytotoxicity against human HL60 cells. Type of assay: functional, cell-based.
A short description of assay [1]: Cytotoxicity against human Bel7404 cells. The following applies: BEL-7404, read-out: ED50 (the source's name). The format is functional.

On to `CC(C)C[C@@H]1NC(=O)[C@H]([C@@H](C)O)NC(=O)[C@@H]2CCCN2C(=O)CNC(=O)[C@H](Cc2ccccc2)NC(=O)[C@@H]2CCCN2C(=O)[C@H](Cc2c[nH]c3ccccc23)NC1=O` (cyclo(FGPTLWP)), for which, in the assay on HL-60, the result was inactive. For the compound `CC(C)C[C@@H]1NC(=O)[C@H](Cc2c[nH]c3ccccc23)NC(=O)[C@@H]2CCCN2C(=O)[C@H](Cc2ccccc2)NC(=O)CNC(=O)[C@@H]2CCCN2C(=O)[C@H]([C@@H](C)O)NC1=O` [PHAKELLISTATIN 13] (cyclo(FPWLTPG)), the EC50 in assay [1] is less than 0.01 µg/mL.
